# Measurements reported in US20250213452A1, “BIFUNCTIONAL PEPTIDES FOR BIOMIMETIC RECONSTRUCTION OF SILVER DIAMINE FLUORIDE TREATED DENTAL TISSUES” (University of Kansas, priority 2022, published 2025).
# Like-named read-outs stand apart in the source and are kept apart here.
# Experiments:
# [1] = cell-free assay, demineralized human dentin root surfaces; cited from earlier work
# [2] = Enzyme-mediated (alkaline phosphatase) mineralization on Ag-coated silica substrates, SEM/EDS; conditions: 50 μM bifunctional peptide
# Method: (§1) Lyophilized peptide stocks were selected and reconstituted in Milli-Q (resistance, >18 MQ) water immediately prior to experiments with both silver-coated silica substrates and slabs of dental tissue. Stock solutions were prepared to a final concentration of 100 μM peptide. Silica substrates or slabs of dental tissue were submerged into a solution containing 50 μM peptide and allowed 2-4 hours gentle shaking at room temperature to ensure the binding of AgBP. This excess concentration and incubation time was used to ensure ample peptide binding.
# To confirm the selectivity and specificity for silver-binding of bifunctional peptides, preliminary studies were conducted on silver-coated silica substrates. Silica wafers were cut into 1 cm square pieces using a diamond scribe and a published protocol for […] deposition of silver onto silica was followed.^66,67 Briefly, the Si(111) wafers were cleansed in hydrogen peroxide and sulfuric acid solution (3:7) for 20 minutes, rinsed thoroughly with Milli-Q water, and dried with N2 gas prior to use. An etching step was employed prior to Ag-deposition, where a drop of 5% NH4F solution was placed on the surface of the cleaned silica substrate for 30 s and removed carefully with N2 gas. […]
# [3] = Enzyme-mediated mineralization on SDF-treated dental tissue slabs, SEM/EDS Ca/P ratio of mineral layer; set-up: species or system human; conditions: for Averaged calculated Ca/P ratio: Mineralized sample
# Method: as §1
# NaCl containing 0.002% sodium azide.
# To investigate calcium phosphate nucleation facilitated by the MP, an alkaline phosphatase (AP) based mineralization model was followed.^44 This model mimics the biological process wherein inorganic phosphate is cleaved from organic phosphate by naturally occurring AP and subsequently reacts with free calcium. Briefly, control samples without peptide and test samples functionalized with MP were submerged in a remineralization buffer containing 14.4 mM β-glycerophosphate (β-GP) and 24 mM Ca^2+ in 25 mM Tris-HCl at pH 7.4. Mineralization reactions were initiated by adding alkaline phosphatase (fastAP; ThermoFisher, USA) to the solutions to achieve a final concentration of 1.4×10^−6 g/mL and allowed to react at 37° C. for 2 hours to form a calcium phosphate mineral layer on the sample surface. Samples were removed from the solution and allowed to air dry prior to microscopic and spectroscopic analyses.
# For the bifunctional peptide treated group, SDF-treated dental tissues were functionalized with either 0 μM or 50 μM bifunctional peptide prior to the mineralization protocol. […] On average, the Ca/P ratios from the mineralized layer observed in both the peptide-treated and SDF-treated tissue as well as the SDF-only treated tissues, were about 0.1-0.15 less than what was obtained for the untreated and peptide-functionalized Ag-coated silica samples. The presence of calcium phosphate rich minerals in the slabs of dental tissue may alter the availability of free calcium and phosphate in the enzyme-mediated mineralization reaction. […] Differences in the mineralization may also be attributed to the anchoring effect of the AgBP peptide being bound to the SDF-treated regions of the dental tissue.
# [4] = SDF-treated Control
# Method: Specimens of dental tissues were prepared using a protocol modified slightly from previous publications.^45 The specimens consisted of extracted human molars. […] The extracted teeth were stored at 4° C. in 0.9% wt./vol. NaCl containing 0.002% sodium azide. […] The tooth was sectioned parallel to the long axis to provide 1.4 mm thick slabs. The prepared sections were stored in a modified phosphate buffered saline (PBS) buffer (20 mM Na2HPO4, 137 mM NaCl, 2.7 mM KCl, and 1.8 mM KH2PO4, pH 7.4) at 4° C. until experimental use.
# SDF was applied to dental tissue following the detailed guidelines published by the UCSF Caries Arrest Committee.^25,34 Briefly, the prepared slabs of dental tissue were removed from the modified PBS buffer, rinsed with Milli-Q purified water, and gently dried with compressed air to reveal suitable carious regions of the dental tissues. A single drop of commercially available 38% SDF solution (Dengen Caries Arrest; Dengen Dental, Bahadurgarh, Haryana, India) was placed into a fresh plastic dish. A microbrush applicator head was dipped into the solution and touched to the side of the dish to remove excess fluid by surface tension. The SDF was applied to the dental tissue, allowed to absorb for 1 minute and the treated sample was gently rinsed with Milli-Q purified water. The tissue was placed back into modified PBS buffer and incubated at 37° C. for 6 hours to mimic the oral environment and to allow for SDF activity.
# To image the mineral morphology, surface coverage, and to determine the Ca/P ratios of the precipitated material, a Hitachi SU8230 Field Emission Scanning Electron Microscope (Hitachi High-Tech America, IL, USA) equipped with a silicon drift EDS detector (X-Max, Oxford Instruments, MA, USA) was used. SEM imaging was completed at 5 kV and EDS measurements made with an acceleration voltage of 10 kV to improve signal. Prior to SEM/EDS analysis, samples were sputter-coated with 5 nm iridium using a Quorum sputter coating system (Q150, Quorum, UK). EDS analysis was performed using AZtec software (Oxford Instruments, MA, USA) and values were averaged across a minimum of three regions for each sample.
# Treated dental tissues were analyzed using SEM for imaging and EDS for compositional analysis. Average Ca/P molar ratios were calculated for each slab of dental tissue from both SDF-treated and untreated regions of enamel and dentin, corresponding to SDF treatment of carious dental tissues, to assess mineral formation and compositional changes on the tooth samples in the presence and absence of the bifunctional peptide.
substance,measurement,setting,value
"SYEKSHSQAINTDRT [MP, mineralizing peptide domain, 15 amino acids, derived from amelogenin]",hydroxyapatite mineral layer formation,[1],regulated formation of a robust hydroxyapatite mineral layer
"SYEKSHSQAINTDRTAPAEQLGVRKELRGV [MP_APA_AgBP, bifunctional peptide, MP and AgBP domains joined by APA spacer]",average Ca/P ratio of mineral layer,[2]; EDS,about 1.40
same,mineral coverage compared to control samples,"[2]; alkaline phosphatase-based mineralization, SEM",significantly higher mineral coverage
same,Averaged calculated Ca/P ratio,"[3]; SDF-treated Peptide-functionalized (50 μM), Dentin",1.291
same,Averaged calculated Ca/P ratio,"[3]; SDF-treated Peptide-functionalized (50 μM), Enamel",1.338
same,Averaged calculated Ca/P ratio,"[3]; SDF-treated Peptide-functionalized (50 μM), SDF-stained dentin",1.238
same,Averaged calculated Ca/P ratio,"[3]; SDF-treated Peptide-functionalized (50 μM), SDF-stained enamel",1.257
same,mineralization onto SDF treated dental tissues,"[3]; four SDF treated slabs of carious dental tissue, bright field optical microscopy, FIG. 7",demonstrated the capacity to direct mineralization
silver diamine fluoride [SDF],Averaged calculated Ca/P ratio,"[3]; SDF-treated, 0 μM peptide, Dentin",1.066
same,Averaged calculated Ca/P ratio,"[3]; SDF-treated, 0 μM peptide, Enamel",1.092
same,Averaged calculated Ca/P ratio,"[3]; SDF-treated, 0 μM peptide, SDF-stained dentin",1.137
same,Averaged calculated Ca/P ratio,"[3]; SDF-treated, 0 μM peptide, SDF-stained enamel",1.100
same,Averaged calculated Ca/P ratio,[4]; Dentin (untreated region),1.419
same,Averaged calculated Ca/P ratio,[4]; Enamel (untreated region),1.447
same,Averaged calculated Ca/P ratio,[4]; SDF-stained dentin,1.546
same,Averaged calculated Ca/P ratio,[4]; SDF-stained enamel,1.540
